In publication PMC11192927, “The potential of a novel enzyme-based surface plasmon resonance biosensor for direct detection of dopamine” (Scientific Reports, 2024):

Biological target: laccase (CotA) (Bacillus sp. HR03, UniProt B9W2C5)
Assay: biochemical

Chain of laccase (CotA) (B9W2C5 1-513): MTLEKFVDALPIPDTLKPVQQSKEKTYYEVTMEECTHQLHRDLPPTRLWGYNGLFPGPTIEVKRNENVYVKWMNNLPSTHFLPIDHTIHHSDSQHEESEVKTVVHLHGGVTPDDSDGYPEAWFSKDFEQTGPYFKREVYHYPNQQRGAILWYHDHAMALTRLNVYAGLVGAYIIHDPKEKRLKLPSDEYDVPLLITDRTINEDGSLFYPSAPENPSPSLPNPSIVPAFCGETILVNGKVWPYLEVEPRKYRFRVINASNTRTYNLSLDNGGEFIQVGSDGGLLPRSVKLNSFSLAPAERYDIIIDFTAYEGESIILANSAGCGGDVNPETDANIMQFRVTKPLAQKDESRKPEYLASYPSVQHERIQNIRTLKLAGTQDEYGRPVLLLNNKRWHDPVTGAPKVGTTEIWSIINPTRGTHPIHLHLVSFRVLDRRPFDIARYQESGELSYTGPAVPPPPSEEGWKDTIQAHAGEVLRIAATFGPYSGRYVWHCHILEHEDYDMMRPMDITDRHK

`NCCc1ccc(O)c(O)c1` [dopamine] showed a Kd of 48.5 nM.
